From patent US20150299233A1, “COMPOSITIONS AND METHODS COMPRISING RHENIUM FOR THE TREATMENT OF CANCERS” (Massachusetts Institute of Technology, priority 2014, published 2015)
Read-outs that look alike come from different tables or passages of the source.

Experiments:
A549 cells [1] = experiment: Hoechst 33258/propidium iodide double staining, fluorescence microscopy; assay type: cell-based, human; conditions: for nuclear staining, Hoechst 33258 and PI uptake: 20 μM for 12 h; for PI staining on co-incubation with necrostatin-1: necrostatin-1 60 μM for 12 h
Description: Intracellular ROS production and mitochondrial membrane depletion contribute to necroptosis. Cells undergoing necroptosis display necrosis-like morphological features such as loss of cell membrane integrity, increase in organelle and cell volume (oncosis), and intact nuclear membrane. To further test whether 1- and 2-treatment can trigger necroptosis, Hoechst 33258/propidium iodide (PI) double staining was carried out to determine nuclear membrane morphology and integrity. Hoechst 33258 is a DNA minor groove binder that is routinely used to visualize the nucleus without the need for cell permeabilization. When used without cell permeabilization agents, PI stains the nuclei of necrotic cells. Early-stage apoptotic and normal cells maintain cell membrane integrity and thus are not stained by PI. A549 cells were treated with 1 and 2 (20 μM for 12 h), incubated with Hoechst 33258 and PI, and imaged using a fluorescence microscope.
Fluorescence Microscopy. A549 cells (1.5×10^6 cells/well) were incubated with and without 1 and 2 (20 μM) for 12 h. The media were then removed, and the cells were washed with additional media (2 mL×2). After incubation of the cells with more media containing Hoechst 33258 (7.5 μM) and PI (5 μM), the nuclear regions were imaged using a fluorescence microscope. Fluorescence imaging experiments were performed using a Zeiss Axiovert 200M inverted epifluorscence microscope with a Hamamatsu EM-CCD digital camera C9100 and a MS200 XY Piezo Z stage (Applied Scientific Instruments, Inc.). An X-Cite 120 metal halide lamp (EXFO) was used as the light source. Zeiss standard filter set 49 was employed for imaging the nuclear region. The microscope was operated with Volocity software (version 6.01, Improvision). The exposure time for acquisition of fluorescence images was kept constant for each series of images at each channel.

NTERA-2 = experiment: MTT cytotoxicity assay, NTERA-2 cells; assay type: cell-based, human; conditions: Table 1; 72 h exposure; ± standard deviation; read-out: IC50 NTERA-2 testis carcinoma
A549 cells [2] = experiment: MTT cytotoxicity assay, A549 cells; assay type: cell-based, human
Description: In vitro toxicity of the rhenium (v) oxo complexes, 1 and 2 towards a panel of human cell lines was determined using the colorimetic MTT [[3-(4,5-dimethylithiazol-2-yl)-2,5-diphenyltetrazolium bromide] assay.
The in vitro effect of rhenium(V) oxo complexes 1 and 2 toward a panel of human cell lines was determined by the colorimetric MTT [3-(4,5-dimethylthiazol-2-yl)-2,5-diphenyltetrazolium bromide] assay. […] The IC50 values, or concentration required to induce 50% cell death, were derived from dose—response curves and are summarized in Table 1.
Cells (2×10^3 cells/well) were seeded in a 96-well plate. […] 1 and 2 were prepared as 10 mM solutions in DMSO and diluted using media. The final concentration of DMSO in each well was 0.5%, and this amount was also present in the untreated control. After 72 h, the medium was removed, 200 μL of a 0.4 mg/mL solution of MTT in DMEM, RPMI, or McCoy's 5A was added, and the plate was incubated for an additional 1-2 h. The DMEM/MTT, RPMI/MTT, or McCoy's 5A/MTT mixture was aspirated, and 200 μL of DMSO was added to dissolve the resulting purple formazan crystals. The absorbance of the solution wells was read at 550 nm. Absorbance values were normalized to DMSO-containing control wells and plotted as the concentration of test compound versus % cell viability. IC50 values were interpolated from the resulting dose-dependent curves. The reported IC50 values are the average from at least three independent experiments, each of which consisted of six replicates per concentration level.

[3] = Lipophilicity, partition between octanol and water; assay type: physicochemical; conditions: experimentally determined
U2OS = experiment: MTT cytotoxicity assay, U2OS cells; assay type: cell-based, human
A549 cells [4] = experiment: JC-1 mitochondrial membrane potential assay; assay type: cell-based, human; conditions: for JC-1 green fluorescence versus untreated cells (mitochondrial membrane disruption): 1, 2, shikonin 20 μM for 12 h, CCCP 5 μM for 12 h
Description: The effect of 1 and 2 on the mitochondrial membrane potential was assessed by flow cytometry, using the JC-1 assay (5,5′,6,6′-tetrachloro-1,1′,3,3′-tetraethylbenzimidazolyl carbo-cyanine iodide). JC-1 is a cationic lipophilic dye that localizes in the mitochondria of healthy cells as red-emitting aggregates. If the mitochondrial membrane potential is disrupted, JC-1 forms green-emitting monomers. […] This could explain the high residual toxicity (>1 μM) observed for A549 cells co-incubated with the rhenium complexes (1 and 2) and necrostatin-1 (FIG. 1B).
JC-1 Assay. The JC-1 Mitochondrial Membrane Potential Assay Kit (Cayman) was used. The manufacturer's protocol was followed to carry out this experiment. Briefly, to untreated and treated A549 cells (1.5×10^6 cells/well) grown in six-well plates was added the JC-1 staining solution (100 μL/mL of cell media). The cells were incubated for 30 min, harvested, and analyzed by using the FACSCalibur-HTS flow cytometer (BD Biosciences) (20 000 events per sample were acquired).The FL1 channel was used to assess mitochondrial depolarization. Cell populations were analyzed using the FlowJo software (Tree Star).

[5] = tested on: cisplatin-sensitive cells (A2780); experiment: MTT cytotoxicity assay, A2780 cells; assay type: cell-based, human
[6] = tested on: cisplatin-resistant ovarian carcinoma cells (A2780CP70); experiment: MTT cytotoxicity assay, A2780CP70 cells; assay type: cell-based, human
[7] = tested on: PC-3 (prostate adenocarcinoma); experiment: MTT cytotoxicity assay, PC-3 cells; assay type: cell-based, human; conditions: Table 2; cisplatin-resistant cell line; 72 h exposure
HT-29 = experiment: Cytotoxicity in the presence of necrostatin-1, HT-29 cells; assay type: cell-based, human; conditions: necrostatin-1 60 μM, t test p<0.05
Description: In order to determine the cell-killing mechanism of 1 and 2, cytotoxicity studies in the presence of apoptosis and necrosis inhibitors were conducted. […] The possibility that 1 and 2 induce necroptosis was then investigated. Necroptosis is a well-regulated mode of cell death that is different from unregulated necrosis and apoptosis. Unlike unregulated necrosis, which can be induced by H2O2 or heat, necroptosis generally involved the interaction of protein kinases, RIP1 and RIP3, to initiate cell disintegration. This process can be blocked by necrostatin-1, a potent RIP1 kinase inhibitor. To determine whether 1 and 2 induced necroptosis and/or uncontrolled necrosis, cytotoxicity studies were conducted in the presence of necrostatin-1 (60 μM) and IM-54 (10 μM), an inhibitor of H2O2-induced necrosis. […] Therefore, 1- and 2-induced cell death relies on RIP1-RIP3 complex formation and not on the expression levels of the individual protein kinases. RIP1 can also form a cytosolic complex with Fas-associated death domain (FADD) and caspase 8, known as a ripoptosome, to initiate apoptosis (through caspase 8 cleavage).
Cytotoxicity MTT Assay. […] Cells (2×10^3 cells/well) were seeded in a 96-well plate. […] The absorbance of the solution wells was read at 550 nm. Absorbance values were normalized to DMSO-containing control wells and plotted as the concentration of test compound versus % cell viability. […]

[8] = Table 1, 72 h exposure, ± standard deviation, read-out: IC50 A549 lung carcinoma
[9] = Table A, average of three independent determinations, read-out: IC50 A549 (lung)
[10] = Table 1, 72 h exposure, ± standard deviation, read-out: IC50 U2OS bone osteosarcoma
[11] = Table A, average of three independent determinations, read-out: IC50 U2OS (bone)
[12] = Table 1, 72 h exposure, ± standard deviation, read-out: IC50 A2780 ovarian carcinoma
[13] = Table A, average of three independent determinations, read-out: IC50 A2780 (ovarian)
[14] = Table 1, 72 h exposure, ± standard deviation, read-out: IC50 A2780CP70 ovarian carcinoma
[15] = Table A, average of three independent determinations, read-out: IC50 A280CP70 (ovarian)

Row | Compound | nuclear staining, Hoechst 33258 and PI uptake (A549 cells [1]) | PI staining on co-incubation with necrostatin-1 (A549 cells [1]) | IC50 (NTERA-2) [nM] | IC50 (A549 cells [2]; [8]) [nM] | IC50 (A549 cells [2]; [9]) [nM] | higher toxicity for lung carcinoma A549 cells than cisplatin (A549 cells [2]; ratio to cisplatin, Example 1) [fold] | log P [3] | IC50 (U2OS; [10]) [nM] | IC50 (U2OS; [11]) [nM] | induced mitochondrial membrane depletion with necrostatin-1 (A549 cells [4]) | JC-1 green fluorescence versus untreated cells (mitochondrial membrane disruption) (A549 cells [4]) | IC50 [5, 12] [nM] | IC50 [5, 13] [nM] | IC50 [6, 14] [nM] | IC50 [6, 15] [nM] | IC50 [7] [nM] | effect of co-incubation with necrostatin-1 on toxicity, HT-29 (HT-29)
1 | C[O][Re](=[O])([Cl])[Cl].c1ccc(-c2ccnc3c2ccc2c(-c4ccccc4)ccnc23)cc1 [Compound 1, [ReO(OMe)(4,7-diphenyl-1,10-phenanthroline)-Cl2]] | pink nuclei | unstained by PI | 230 ± 28 | 207 ± 4 | 207 ± 4 | 37 | 1.20 | 274 ± 6 | 274 ± 6 | amplified | increased green fluorescence | 670 ± 40 | 670 ± 40 | 42 ± 15 | 42 ± 15 | 270 ± 14 | markedly decreased the toxicity
2 | C[O][Re-2]1(=[O])([Cl])([Cl])[n+]2cc(C)c(C)c3ccc4c(C)c(C)c[n+]1c4c32 [Compound 2, [ReO(OMe)(3,4,7,8-tetramethyl-1,10-phenanthroline)Cl2]] | pink nuclei | unstained by PI | 255 ± 35 | 157 ± 15 | 73 ± 3 |  | 0.95 | 209 ± 31 | 209 ± 31 | amplified | increased green fluorescence | 150 ± 10 | 150 ± 10 | 56 ± 2 | 56 ± 2 | 780 ± 10 | markedly decreased the toxicity
